From EP0451791A2, “Long acting liposome compositions containing peptid drugs and method for their preparation” (HOECHST AKTIENGESELLSCHAFT, priority 1990, dated 1991)

Test system: weiblicher Ratten
Assay: Cycle (oestrus) suppression in female rats after s.c. injection, weekly vaginal smear (Beispiel 2)
Format: in vivo
Settings: HOE 013 solution 60 μg daily, liposomes single dose 3200 μg HOE 013
Description: 2 x 1 ml der Liposomen (entspr. einer Einmalgabe von 3200 µg HOE 013) aus Beispiel 1 werden subkutan weiblichen Ratten von ca. 200 g Körpergewicht injiziert. Als Kontrolle dient eine gleiche Testgruppe von Tieren, die nur Lösungsmittel (Kochsalzlösung) erhält (Placebo) und eine Gruppe von Tieren, die mit täglichen Gaben von LHRH-Antagonist-Lösung (60 µg) (in 5 %iger Mannitlösung) behandelt wird. Die Östrussuppression der Tiere wird durch wöchentlichen Östrusabstrich überprüft. Am Tag 35 wird die Konzentration von HOE 013 im Urin gemessen und die 24 h-Ausscheidung berechnet.
Die Ergebnisse (s. Tabelle 1) zeigen, daß die Tiere der Liposomengruppe im Gegensatz zu den beiden Kontrollgruppen nach 35 Tagen noch deutlich supprimiert sind. Die Exkretionsrate am Tag 35 (4,5 µg) belegt eine signifikante Ausscheidung des Antagonisten im Falle der Liposomenpräparation. Diese Exkretionsrate ist mit der Plasmakonzentration eng korreliert.

Measured: Ratten mit Zuyklussuppression/ Ratten pro Gruppe

Ac-D-Nal-p-Cl-D-Phe-D-Trp-Ser Tyr-D-Ser (α-L-Rha)-Leu-Arg-Pro-Azagly-NH₂ [HOE 013]
0/11: Tag 1 of vaginal cytology | Tag 7 of vaginal cytology | Tag 14 of vaginal cytology | Tag 21 of vaginal cytology | Tag 28 of vaginal cytology | Tag 35 of vaginal cytology
